Experimental data taken from the supplement of paper PMC5908809.

Key:
[1] = test system: normal NK cells expanded with K562-aAPC; assay: percent inhibition of viability; higher = more inhibition; conditions: 72 h, IL-2 2.5 ng/mL
Description: (§1)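 Drug sensitivity and resistance testing on K562-aAPC-expanded normal NK cells: 5 concentrations (10-fold steps over a 10,000-fold range), 72 h at 37 °C, viability by CellTiter-Glo normalised to DMSO and benzethonium chloride controls; DSS from the fitted curve.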

KHYG-1 (IL-2 2.5 ng/mL) [2] = assay: drug sensitivity score (DSS) (DSS units); higher = more sensitive; extreme values may be limits of the assay; conditions: 72 h
[3] = test system: normal primary NK cells, pool 1 (3 donors), resting (IL-2 0 ng/mL); assay: as above; conditions: 72 h
[4] = test system: normal primary NK cells, pool 1 (3 donors) (IL-2 2.5 ng/mL); assay: as above; conditions: 72 h
SNK-6 (IL-2 2.5 ng/mL) [5] = assay: as above; conditions: 72 h
[6] = test system: normal primary NK cells, pool 3 (3 donors) (IL-2 2.5 ng/mL); assay: as above; conditions: 72 h
[7] = test system: normal primary NK cells, pool 2 (3 donors) (IL-2 2.5 ng/mL); assay: as above; conditions: 72 h
KAI3 (IL-2 2.5 ng/mL) [8] = assay: as above; conditions: 72 h
NK-92 (IL-2 2.5 ng/mL) [9] = assay: as above; conditions: 72 h
YT (IL-2 2.5 ng/mL) [10] = assay: as above; conditions: 72 h
DERL-7 (IL-2 2.5 ng/mL) [11] = assay: as above; conditions: 72 h
NK-YS (IL-2 2.5 ng/mL) [12] = assay: as above; conditions: 72 h
NKL (IL-2 2.5 ng/mL) [13] = assay: as above; conditions: 72 h
IMC-1 (IL-2 20 ng/mL) [14] = assay: as above; conditions: 72 h
KHYG-1 (IL-2 2.5 ng/mL) [15] = assay: percent inhibition of viability; higher = more inhibition; conditions: 72 h
[16] = test system: normal primary NK cells, pool 1 (3 donors), resting (IL-2 0 ng/mL); assay: as above; conditions: 72 h
[17] = test system: normal primary NK cells, pool 1 (3 donors) (IL-2 2.5 ng/mL); assay: as above; conditions: 72 h
SNK-6 (IL-2 2.5 ng/mL) [18] = assay: as above; conditions: 72 h
[19] = test system: normal primary NK cells, pool 3 (3 donors) (IL-2 2.5 ng/mL); assay: as above; conditions: 72 h
[20] = test system: normal primary NK cells, pool 2 (3 donors) (IL-2 2.5 ng/mL); assay: as above; conditions: 72 h
KAI3 (IL-2 2.5 ng/mL) [21] = assay: as above; conditions: 72 h
NK-92 (IL-2 2.5 ng/mL) [22] = assay: as above; conditions: 72 h
YT (IL-2 2.5 ng/mL) [23] = assay: as above; conditions: 72 h
DERL-7 (IL-2 2.5 ng/mL) [24] = assay: as above; conditions: 72 h
NK-YS (IL-2 2.5 ng/mL) [25] = assay: as above; conditions: 72 h
NKL (IL-2 2.5 ng/mL) [26] = assay: as above; conditions: 72 h
IMC-1 (IL-2 20 ng/mL) [27] = assay: as above; conditions: 72 h
[28] = test system: normal NK cells expanded with K562-aAPC; assay: drug sensitivity score (DSS) (DSS units); higher = more sensitive; extreme values may be limits of the assay; conditions: 72 h; IL-2 2.5 ng/mL
Description: as §1

NC(=O)Nc1sc(-c2ccc(F)cc2)cc1C(N)=O [TPCA-1] (max concentration tested 25000 nM)
percent inhibition of viability [%]
Conditions | 2.5 nM | 25 nM | 250 nM | 2500 nM | 25000 nM
DERL-7 (IL-2 2.5 ng/mL) [24] | 0.71 | 4.69 | 36.8 | 94 | 100
IMC-1 (IL-2 20 ng/mL) [27] | -2.64 | -8.76 | -6.99 | 3.86 | 99.3
KAI3 (IL-2 2.5 ng/mL) [21] | -6.8 | -3.3 | 53.5 | 89.1 | 91.4
KHYG-1 (IL-2 2.5 ng/mL) [15] | -2.05 | -6.88 | 25.8 | 101 | 97.8
NK-92 (IL-2 2.5 ng/mL) [22] | -11.2 | -10.8 | 8.78 | 80.4 | 91.7
NK-YS (IL-2 2.5 ng/mL) [25] | -6.85 | -4.02 | 17 | 58 | 94.8
NKL (IL-2 2.5 ng/mL) [26] | -2.04 | -2.79 | 45.8 | 72.9 | 87.4
SNK-6 (IL-2 2.5 ng/mL) [18] | -12.6 | -19.3 | 33.2 | 75.8 | 93.2
YT (IL-2 2.5 ng/mL) [23] | -3.91 | -4.44 | 13.1 | 79.6 | 97.9
[1] | -0.68 | -4.88 | 18.2 | 88.4 | 98.1
[16] | -1.07 | 1.15 | 3.48 | 43.5 | 82.3
[17] | -12.8 | -10.6 | 13.2 | 73.4 | 94.3
[19] | -6.13 | -4.52 | 15.6 | 67.3 | 91.3
[20] | -8.08 | -4.41 | 24.2 | 69.5 | 87.1

Conditions | drug sensitivity score
DERL-7 (IL-2 2.5 ng/mL) [11] | 21.5
IMC-1 (IL-2 20 ng/mL) [14] | 6.04
KAI3 (IL-2 2.5 ng/mL) [8] | 23
KHYG-1 (IL-2 2.5 ng/mL) [2] | 21.9
NK-92 (IL-2 2.5 ng/mL) [9] | 15.9
NK-YS (IL-2 2.5 ng/mL) [12] | 13.2
NKL (IL-2 2.5 ng/mL) [13] | 20
SNK-6 (IL-2 2.5 ng/mL) [5] | 18.2
YT (IL-2 2.5 ng/mL) [10] | 16.3
[3] | 9.72
[4] | 15.2
[6] | 14.5
[7] | 15.8
[28] | 18.4

Clc1ccccc1C(c1ccccc1)(c1ccccc1)n1cccn1 [TRAM-34] (max concentration tested 1000 nM)
percent inhibition of viability [%]
Conditions | 0.1 nM | 1 nM | 10 nM | 100 nM | 1000 nM
DERL-7 (IL-2 2.5 ng/mL) [24] | 2.4 | -1.24 | 1.99 | -0.74 | 3.63
IMC-1 (IL-2 20 ng/mL) [27] | -7.73 | 1.38 | 0.84 | 6.67 | 8.82
KAI3 (IL-2 2.5 ng/mL) [21] | -2.69 | 4.59 | -1.47 | 2.61 | 4.51
KHYG-1 (IL-2 2.5 ng/mL) [15] | -1.11 | 0.96 | -3.26 | 0.95 | -0.5
NK-92 (IL-2 2.5 ng/mL) [22] | -8.56 | -5.28 | -2.17 | -14.1 | 11.6
NK-YS (IL-2 2.5 ng/mL) [25] | 1.9 | 0.93 | 2.82 | 2.55 | 8.67
NKL (IL-2 2.5 ng/mL) [26] | -1.68 | -6.27 | 6.64 | 4.13 | 5.01
SNK-6 (IL-2 2.5 ng/mL) [18] | 5.28 | 12.6 | 2.07 | 24 | 3.1
YT (IL-2 2.5 ng/mL) [23] | -3.41 | -5.82 | -7.53 | -11.9 | 12.2
[1] | -6.55 | 1.68 | -0.18 | 9.02 | 12.7
[16] | -5.83 | -36.5 | -10.7 | -18.8 | -3.17
[17] | 3.23 | -13.1 | 1.01 | -11 | -5.83
[19] | -3.16 | -4.73 | 5.06 | -3.53 | 6.24
[20] | -11.6 | -1.76 | 12.1 | -4.19 | 0.97

Conditions | drug sensitivity score
DERL-7 (IL-2 2.5 ng/mL) [11] | 0
IMC-1 (IL-2 20 ng/mL) [14] | 0
KAI3 (IL-2 2.5 ng/mL) [8] | 0
KHYG-1 (IL-2 2.5 ng/mL) [2] | 0
NK-92 (IL-2 2.5 ng/mL) [9] | 0
NK-YS (IL-2 2.5 ng/mL) [12] | 0
NKL (IL-2 2.5 ng/mL) [13] | 0
SNK-6 (IL-2 2.5 ng/mL) [5] | 0
YT (IL-2 2.5 ng/mL) [10] | 0
[3] | 0
[4] | 0
[6] | 0
[7] | 0
[28] | 0.49
